# Test results as given in PubChem BioAssay AID2060508 (Molecular Pharmacology Branch, DTP, NCI, 2025).
# Tested on: 454973-116-R2-J3-PDC spheroids, viability, % test/control
# Experiment: Anticancer human tumor 454973-116-R2-J3-PDC patient-derived pancreatic carcinoma cell line growth inhibition [GQUAD]
# Conditions: spheroids with HUVEC and MSC; for IC50: curve of first compound; for viability, T/C: stronger effect = lower value
# In short: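 Multi-cell-type spheroids of tumor cells with HUVEC and mesenchymal stem cells, treated with drug combinations. Concentrations descend in half-log steps from near clinical Cmax, or from 10 microM where Cmax is unknown; viability read-out.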
# [1] = second compound 0.0316 µM, first compound 0.000999 µM
# [2] = second compound 0.0316 µM, first compound 0.00316 µM
# [3] = second compound 0.0316 µM, first compound 0.00999 µM
# [4] = second compound 0.0316 µM, first compound 0.0316 µM
# [5] = second compound 0.0316 µM, first compound 0.0999 µM
# [6] = second compound 0.0316 µM, first compound 0.316 µM
# [7] = second compound 0.1 µM, first compound 0.000999 µM
# [8] = second compound 0.1 µM, first compound 0.00316 µM
# [9] = second compound 0.1 µM, first compound 0.00999 µM
# [10] = second compound 0.1 µM, first compound 0.0316 µM
# [11] = second compound 0.1 µM, first compound 0.0999 µM
# [12] = second compound 0.1 µM, first compound 0.316 µM
# [13] = second compound 0.316 µM, first compound 0.000999 µM
# [14] = second compound 0.316 µM, first compound 0.00316 µM
# [15] = second compound 0.316 µM, first compound 0.00999 µM
# [16] = second compound 0.316 µM, first compound 0.0316 µM
# [17] = second compound 0.316 µM, first compound 0.0999 µM
# [18] = second compound 0.316 µM, first compound 0.316 µM
# [19] = second compound 1 µM, first compound 0.000999 µM
# [20] = second compound 1 µM, first compound 0.00316 µM
# [21] = second compound 1 µM, first compound 0.00999 µM
# [22] = second compound 1 µM, first compound 0.0316 µM
# [23] = second compound 1 µM, first compound 0.0999 µM
# [24] = second compound 1 µM, first compound 0.316 µM
# [25] = second compound 3.16 µM, first compound 0.000999 µM
# [26] = second compound 3.16 µM, first compound 0.00316 µM
# [27] = second compound 3.16 µM, first compound 0.00999 µM
# [28] = second compound 3.16 µM, first compound 0.0316 µM
# [29] = second compound 3.16 µM, first compound 0.0999 µM
# [30] = second compound 3.16 µM, first compound 0.316 µM
# [31] = second compound 10 µM, first compound 0.000999 µM
# [32] = second compound 10 µM, first compound 0.00316 µM
# [33] = second compound 10 µM, first compound 0.00999 µM
# [34] = second compound 10 µM, first compound 0.0316 µM
# [35] = second compound 10 µM, first compound 0.0999 µM
# [36] = second compound 10 µM, first compound 0.316 µM
# 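Also: spheroids exposed to compounds for seven days.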
# 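For viability, T/C in this document: 100% = DMSO vehicle control viability.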
smiles,measurement,setting,value
CC[C@@]1(O)C(=O)OCc2c1cc1n(c2=O)Cc2cc3c(CN(C)C)c(O)ccc3nc2-1 + Cc1[nH]c2ccc(F)cc2c1-c1nc2c3cccnc3c3ncccc3c2[nH]1,IC50,second compound 0.0316 µM,0.0527 µM
same,IC50,second compound 0.1 µM,0.0478 µM
same,IC50,second compound 0.316 µM,0.0454 µM
same,IC50,second compound 1 µM,0.0443 µM
same,IC50,second compound 3.16 µM,0.0523 µM
same,IC50,second compound 10 µM,0.0379 µM
same,"viability, T/C",[1],97.3%
same,"viability, T/C",[2],95.9%
same,"viability, T/C",[3],94.7%
same,"viability, T/C",[4],69.2%
same,"viability, T/C",[5],25%
same,"viability, T/C",[6],26.9%
same,"viability, T/C",[7],114%
same,"viability, T/C",[8],93.7%
same,"viability, T/C",[9],102%
same,"viability, T/C",[10],66%
same,"viability, T/C",[11],20.8%
same,"viability, T/C",[12],21.8%
same,"viability, T/C",[13],102%
same,"viability, T/C",[14],119%
same,"viability, T/C",[15],92.7%
same,"viability, T/C",[16],65%
same,"viability, T/C",[17],19.7%
same,"viability, T/C",[18],20.7%
same,"viability, T/C",[19],103%
same,"viability, T/C",[20],99.3%
same,"viability, T/C",[21],94.6%
same,"viability, T/C",[22],62.4%
same,"viability, T/C",[23],19.6%
same,"viability, T/C",[24],20.7%
same,"viability, T/C",[25],97.7%
same,"viability, T/C",[26],101%
same,"viability, T/C",[27],85%
same,"viability, T/C",[28],70.9%
same,"viability, T/C",[29],20.8%
same,"viability, T/C",[30],25.2%
same,"viability, T/C",[31],100%
same,"viability, T/C",[32],83.9%
same,"viability, T/C",[33],82.3%
same,"viability, T/C",[34],56.7%
same,"viability, T/C",[35],23.2%
same,"viability, T/C",[36],23%
CCc1c2c(nc3ccc(O)cc13)-c1cc3c(c(=O)n1C2)COC(=O)[C@]3(O)CC + Cc1[nH]c2ccc(F)cc2c1-c1nc2c3cccnc3c3ncccc3c2[nH]1,IC50,second compound 0.0316 µM,0.00153 µM
same,IC50,second compound 0.1 µM,0.00147 µM
same,IC50,second compound 0.316 µM,0.00167 µM
same,IC50,second compound 1 µM,0.00162 µM
same,IC50,second compound 3.16 µM,0.00134 µM
same,IC50,second compound 10 µM,0.00154 µM
same,"viability, T/C",[1],62.5%
same,"viability, T/C",[2],26.2%
same,"viability, T/C",[3],21.5%
same,"viability, T/C",[4],14.5%
same,"viability, T/C",[5],7.97%
same,"viability, T/C",[6],3.8%
same,"viability, T/C",[7],63.1%
same,"viability, T/C",[8],21.8%
same,"viability, T/C",[9],19.9%
same,"viability, T/C",[10],13%
same,"viability, T/C",[11],8.7%
same,"viability, T/C",[12],3.86%
same,"viability, T/C",[13],67.5%
same,"viability, T/C",[14],25.7%
same,"viability, T/C",[15],19.2%
same,"viability, T/C",[16],14.6%
same,"viability, T/C",[17],7.62%
same,"viability, T/C",[18],3.05%
same,"viability, T/C",[19],67.3%
same,"viability, T/C",[20],22.5%
same,"viability, T/C",[21],22%
same,"viability, T/C",[22],13.3%
same,"viability, T/C",[23],7.87%
same,"viability, T/C",[24],5.39%
same,"viability, T/C",[25],59.1%
same,"viability, T/C",[26],21.1%
same,"viability, T/C",[27],21.8%
same,"viability, T/C",[28],15.2%
same,"viability, T/C",[29],8.28%
same,"viability, T/C",[30],5.63%
same,"viability, T/C",[31],63.6%
same,"viability, T/C",[32],25.6%
same,"viability, T/C",[33],18.2%
same,"viability, T/C",[34],14.2%
same,"viability, T/C",[35],8.05%
same,"viability, T/C",[36],3.9%
